89 compounds from PubChem BioAssay AID1508591 can be followed below.

The conditions of the data set: rat; liver microsomes; pH 7.4; 15.0 min; 1.0 µM. In general terms: Liver microsomes are vesicles of endoplasmic reticulum, rich in cytochrome P450 enzymes.
`COc1ccc(-c2nc(-c3c(C)noc3C)cc3c2cc(C)n3CCN(C)C)cc1OC`: the half-life was more than 30 min.
Take `COCCNCc1ccc(-c2cc3nccc(Oc4ccc(NC(=O)C5(C(=O)Nc6ccc(F)cc6)CC5)cc4F)c3s2)nc1`: the half-life was 14.8 min.
`Cn1c(=O)c2c(-c3ccc(Cl)cc3)n(CCc3ccccc3)cc2n(C)c1=O` came in with a half-life of 1.11 min.
The compound `CCOc1ccccc1C(=O)Nc1ccncc1C(=O)Nc1cccc(S(=O)(=O)C(F)(F)F)c1` had a half-life of more than 30 min.
Then `COc1cccc(CNc2ccc(S(=O)(=O)Nc3ccccn3)cc2)c1O`, with more than 30 min; and `NC(=O)C1CCN(c2nc(-c3ccc4c(c3)CCO4)cs2)CC1`, with 5.55 min.
Next, `O=C1CCCC2=C1C(c1ncccc1Br)N=C(Nc1nc3ccccc3o1)N2` (centres undefined): 11.4 min; `COc1cc(NS(=O)(=O)c2ccc(C)cc2)cc(C(=O)Nc2nc(-c3ccccc3)cs2)c1`: 13 min.
Compound `Cc1ccc(S(=O)(=O)Nc2ccccc2C(=O)Nc2cccc(-c3ccccc3)c2)cc1` displayed a half-life of 3.5 min.
The compound `Cc1ccnc(C)c1C(=O)Nc1cccc([S+](=O)([O-])N(C)C)c1` yielded a half-life of more than 30 min.
As for `CC(C)c1nc(CN(C)C(=O)N[C@H](C(=O)N[C@@H](Cc2ccccc2)C[C@H](O)[C@H](Cc2ccccc2)NC(=O)OCc2cncs2)C(C)C)cs1`, the half-life was 22.1 min.
The compound `O=S(=O)(Nc1ccc2ccccc2c1)c1ccc(NCc2ccc(Br)cc2O)cc1` yielded a half-life of 15 min.
Regarding `FC(F)(F)c1cccc(Nc2ccc(CNc3nc(-c4ccccc4C(F)(F)F)nc4ccccc34)cc2)c1`, the half-life is 15.6 min.
As for `Nc1cccc(CNc2ccc(S(=O)(=O)Nc3nccs3)cc2)c1O`, the half-life is more than 30 min.
The compound `Cc1ccccc1OCC(O)CO` (centres undefined) returned a half-life of more than 30 min.
`Cc1cnc(CNc2nc(-c3cccc(NS(C)(=O)=O)c3)nc3ccccc23)cn1` yielded a half-life of 21 min.
Turning to `CCOc1ccc(CCNC(=O)c2ccnn2Cc2ccccn2)cc1OCC`, the half-life was determined as 5.6 min.
Compound `N#Cc1ccc(NS(=O)(=O)c2ccc(NC(=O)Cc3ccc(F)c(Cl)c3)cc2)cc1` registered a half-life of more than 30 min.
Consider `CC[C@H]1C=CC=CC[C@@H](C)[C@H](O)[C@@](C)(O)C(=O)[C@@H](C)[C@H](O)[C@@H](C)C(=O)[C@@H](C)[C@H](O)[C@@H](C)C=CC(=O)O[C@@H]2[C@@H](C)[C@H](CC1)O[C@]1(CC[C@H](C)[C@H](C[C@@H](C)O)O1)[C@H]2C`, for which the half-life was more than 30 min.
Next, `CN(C)C(=O)c1cc(-c2ccc(S(C)(=O)=O)cc2)c2cnn(C)c2n1`: more than 30 min; `Cc1ccc(S(=O)(=O)NC2CCCCC2)cc1`: 1 min.
Then `CCOC(=O)c1c[nH]c2c3c(ccc2c1=O)CCCC3`, with 20.4 min.
Take `O=C(C1CCN(c2nc(-c3ccc(Br)cc3)cs2)CC1)N1CCOCC1`: the half-life is more than 30 min.
Next, `NC(=O)C1CCN(c2ncc(-c3ccc(Cl)cc3)s2)CC1`: 5.97 min; `O=C(Nc1nc(-c2ccccc2)cs1)c1ccncc1NS(=O)(=O)c1ccccc1Cl`: 15 min; `C=Cc1ccc(Cn2c(C(=O)O)c(CNC3CCCCC3)c3ccc(OC)cc32)cc1`: 7.15 min.
The compound `NC(=O)C1CCN(c2nc(-c3ccc(N4CCCCC4)nc3)cs2)CC1` came in with a half-life of 17.2 min.
`Cc1ccc(-c2cc(C(=O)Nc3ccc(-n4cncn4)cc3)c3ccccc3n2)cc1C` displayed a half-life of 23 min.
Next, `CCN(CCO)CCCOc1ccc2c(Nc3cc(CC(=O)Nc4cccc(F)c4)[nH]n3)ncnc2c1`: 1.88 min.
For the compound `Cc1ccccc1-c1nc(NCc2ccc(-c3cccnc3)cc2)c2ccccc2n1`, the half-life was 6.25 min.
Compound `CC#CC(=O)N1CCC[C@H]1c1nc(-c2ccc(C(=O)Nc3ccccn3)cc2)c2c(N)nccn12` returned a half-life of 19.4 min.
As for `CC(=O)c1ccc(N2CCN(C(=O)c3ccc4c(c3)CC(=O)N4)CC2)cc1`, the half-life was more than 30 min.
For the compound `O=C(NCCCNc1nc(Nc2cccc(CN3CCOCC3)c2)ncc1C1CC1)C1CCC1`, the half-life is 6.85 min.
Next, `Brc1ccc(-c2csc(N3CCCCC3)n2)cc1`: 3.45 min.
Regarding `O=C(Nc1ccc(Cl)cc1)C(NS(=O)(=O)c1cccs1)c1ccccc1` (centres undefined), the half-life was determined as 5.38 min.
Compound `C=CCc1cccc(CNc2ccc(S(=O)(=O)Nc3nccs3)cc2)c1O` registered a half-life of 19 min.
For `CCNC(=O)c1coc(COc2ccc3c(c2)C(c2ccc(F)cc2)N(C(=O)CC(C)C)CC3)n1` (centres undefined), the half-life is 1.55 min.
Take `O=C1Nc2ccccc2/C1=C\c1cc(Br)c(O)c(Br)c1`: the half-life is 26 min.
Compound `O=C(NCC1Cn2cccc2CN1Cc1cccnc1)Nc1ccccc1` (centres undefined) yielded a half-life of 1.41 min.
`CC1=C(C(=O)Nc2nncs2)C2(CCCC2)N=C(Nc2nc3ccccc3o2)N1` had a half-life of more than 30 min.
For the compound `O=S(=O)(c1ccccc1)N1CCN(c2nc(-c3ccc(Br)cc3)cs2)CC1`, the half-life was determined as 27.7 min.
Take `COc1cc(-c2nc(Nc3ccc(F)c(F)c3)c3ccccc3n2)ccn1`: the half-life is more than 30 min.
For the compound `CNc1ccc(Br)cc(C(=O)/C=C/c2ccc(OC)cc2OC)c1=O`, the half-life came to 5.16 min.
Turning to `CCN1CCCC1CNCc1ccccc1` (centres undefined), the half-life amounted to 2.5 min.
In turn, `COc1cccc(CNCc2cccn2-c2nnc(N3CCN(c4ccccc4)CC3)s2)c1` returned a half-life of 2.06 min.
Compound `Cn1cc(S(=O)(=O)N2CCCCCC2)cc1C(=O)Nc1ccc(Cl)c(C(F)(F)F)c1` returned a half-life of 5.98 min.
For the compound `COc1ccc(C2C=C(c3ccc(Cl)cc3)Nc3nc(-c4ccc(Cl)cc4)nn32)cc1` (centres undefined), the half-life was more than 30 min.
Compound `O=C(Cc1cccc(OC(F)(F)F)c1)Nc1ccc(CCCCc2nnc(NC(=O)Cc3ccccn3)s2)nn1` showed a half-life of 20.9 min.
`Cn1nnnc1Sc1ncnc2scc(-c3ccccc3F)c12` displayed a half-life of 5.28 min.
On to `Cc1cc(C)nc(NC(=S)N2CCN(c3ccc(F)cc3F)CC2)c1`, for which the half-life was more than 30 min.
`CCCCCCOc1ccc(OC(=O)c2ccncc2)cc1` displayed a half-life of 2.32 min.
Then `Cc1cccc2nc(-c3ccccn3)c(Nc3ccc(F)cc3)n12`, with 6.75 min.
As for `COc1ccccc1-c1nc(NCc2cnc(C)cn2)c2ccccc2n1`, the half-life turned out to be 10 min.
In turn, `COc1ccc(NC(=O)c2c(C)cccc2C)cc1[S+](=O)([O-])N1CCCCC1` registered a half-life of 4.2 min.
With `CC(=O)N1CCc2c(sc3c2c(=O)n(-c2ccccc2)c(=O)n3Cc2cccc(C(F)(F)F)c2)C1`, the half-life was determined as 25 min.
As to `Cc1cc(C)nc(NC(=S)N2CCN(c3cccc(C(F)(F)F)c3)CC2)c1`, the half-life is more than 30 min.
On to `CCOc1ccc(-c2nnc(SCC(=O)NCc3ccccc3Cl)o2)cc1`, for which the half-life was 3.32 min.
`COc1ccc(C2c3c(oc4ccc(C)cc4c3=O)C(=O)N2CCCN2CCOCC2)cc1OC` (centres undefined) yielded a half-life of 7.59 min.
`Fc1cc(Nc2nc(-c3ccncc3)nc3ccccc23)ccc1-c1ccncc1`: the half-life worked out at 13 min.
The compound `Cc1nc(NCc2ccco2)nc2c1C(=O)CC(C)C2` (centres undefined) registered a half-life of 2.7 min.
As for `c1c[nH]c(C2CCN(c3ncc(-c4ccc5c(c4)OCCCO5)s3)CC2)n1`, the half-life amounted to 4.29 min.
On to `Cc1ccc(S(=O)(=O)N2CCCc3cc(NS(=O)(=O)c4ccccc4)ccc32)cc1`, for which the half-life worked out at 1 min.
Then `Cc1ccc(S(=O)(=O)Nc2nc3ccc(C)cc3nc2Nc2ccc3c(c2)OCO3)cc1`, with more than 30 min; and `Cc1ccc(OCCn2c(CCNC(=O)c3ccc(Cl)cc3)nc3ccccc32)cc1`, with 1.8 min.
Next, `Cn1c(=O)c2c(-c3ccc(Br)cc3)n(CCc3ccccc3)cc2n(C)c1=O`: 1.23 min; `COc1ccc(S(=O)(=O)N(CC(=O)Nc2ccc(C)cc2)c2ccc(C)cc2)cc1OC`: 3.28 min; `CNCc1ccc(-c2cc(-c3nc(-c4ccc(S(=O)(=O)C(C)C)cc4)cnc3N)on2)cc1`: more than 30 min.
`Cn1cc2c3c(cccc31)CN(C(=O)c1ccc(F)c(Cl)c1)CC2` had a half-life of 1.88 min.
Compound `Cc1nn(-c2ccccc2)c2nc(C3CC3)cc(C(=O)Nc3ccc(F)cc3)c12` gave a half-life of more than 30 min.
Then `Cc1ccc(S(=O)(=O)Nc2ccncc2C(=O)Nc2nc(-c3ccccc3)cs2)cc1`, with more than 30 min; and `COc1ccc2c3c([nH]c2c1)C1CC2C(CC(O)C(OC)C2CO)CN1CC3` (centres undefined), with more than 30 min.
Take `O=C(O)c1ccccc1-c1ccc(/C=c2\sc3nc4cc(Br)cnc4n3c2=O)o1`: the half-life turned out to be 22 min.
`Fc1ccc(Cc2nc3nccc(-c4cccs4)n3n2)cc1` displayed a half-life of 2.95 min.
The compound `Cc1ccccc1C(=O)N1CCc2cc(-n3cc(NC(=O)Cc4ccccc4)cn3)ccc21` returned a half-life of 11 min.
For `Cc1ccc(S(=O)(=O)Nc2cccc(C(=O)Nc3nc(-c4ccc(Cl)cc4)cs3)c2)cc1`, the half-life worked out at 23 min.
Next, `Clc1ccccc1-c1nccc(-n2ccnc2)n1`: more than 30 min; `COc1ccccc1CNc1ccc(N2CCCCC2)cc1`: 2.19 min; `CCOc1ccccc1CNS(=O)(=O)c1ccc(-c2cnc(C3CC3)o2)cc1`: 1.64 min.
Then `Cc1cc(C)nc(NC(=S)N2CCN(Cc3cccc(C(F)(F)F)c3)CC2)c1`, with more than 30 min; and `CCOc1ccccc1C(=O)Nc1cccnc1C(=O)Nc1cccc(S(=O)(=O)C(F)(F)F)c1`, with more than 30 min; and `O=[S+]([O-])(Nc1nccs1)c1ccc(NCc2ccc(Cl)c(Cl)c2)cc1`, with 24 min.
For the compound `Fc1ccc(-c2ccc(Nc3nc(-c4ccncc4)nc4ccccc34)cc2F)c(F)c1`, the half-life was determined as 23 min.
Take `CCC(CC)(NC(=O)C(C)C)C(=O)N[C@@H](CCCN=C(N)N)C(=O)NC1(C(=O)NC(c2ccc(F)cc2)c2ccc(F)cc2)CCCC1`: the half-life is more than 30 min.
The compound `CCc1ccccc1OC[C@@H](O)CN[C@H]1CCCc2ccccc21` gave a half-life of 1.8 min.
In the case of `CC(Nc1ncnc2c1cnn2-c1cccc(Cl)c1)c1ccccc1` (centres undefined), the half-life is 23 min.
`COC12C(COC(N)=O)C3=C(C(=O)C(C)=C(N)C3=O)N1CC1C2N1C` (centres undefined) came in with a half-life of more than 30 min.
Next, `O=C(Cc1ccc(Cl)c(Cl)c1)Nc1ccc(S(=O)(=O)Nc2nncs2)cc1`: more than 30 min.
With `Nc1ncnc2c1ncn2[C@H]1O[C@@H](CO)[C@@H](O)[C@H]1N`, the half-life was more than 30 min.
`CC(C)N(CCCNC(=O)Nc1ccc(C(C)(C)C)cc1)C[C@H]1O[C@@H](n2ccc3c(N)ncnc32)[C@H](O)[C@@H]1O`: the half-life stood at 2.42 min.

For orientation: half-life means the time needed for the level to fall by half in the phase considered. Low readings indicate rapid decline, high ones slow decline.
